Test results published in PMC10151334, “Anti-proliferative potential and oxidative reactivity of thermo-oxidative degradation products of stigmasterol and stigmasteryl esters for human intestinal cells” (Scientific Reports, 2023).

Experiments:
[1] = system: intracellular ROS in CCD 841 CoN cells; test: Intracellular ROS measurement (DCFH-DA, flow cytometry); format: cell-based, human; settings: up to 40 μg/mL, 24 h
Description: CCD 841 CoN cells were grown in 6-well plates at an initial cell density of 2 × 10^4 cells/cm^2 for 24 h under standard culture conditions. The cell cultures were treated for 24 h with the analyzed compounds at a 40 μg/mL concentration. After treatment, the cells were harvested by trypsinization, washed with Hank's Balanced Salt Solution, and incubated with 10 μM 2′,7′-Dichlorodihydrofluorescein diacetate (DCFH-DA) (Life Technologies, Carlsbad, CA, USA) at 37 °C for 30 min. Intracellular DCF fluorescence (λex/em = 488/530 nm) was examined by flow cytometry (Amnis™ FlowSight™ flow cytometer).

[2] = set-up: method as in PMID 31883991; settings: thermo-oxidative treatment; cited from earlier work
CCD 841 CoN cells [3] = test: DNA damage detection, comet assay (SCGE); format: cell-based, human; settings: 40 μg/mL, 48 h
Description: The cells were grown at 6-well plates at the established density and standard culture conditions and exposed to the non-heated and heated ST, ST-OA, and ST-LA for 48 h. The non-treated cells and cells treated with H2O2 (100 μM, 30 min) to induce oxidative DNA damage constituted the negative and positive controls, respectively. After treatment, cells were analyzed for DNA damage using a single cell gel electrophoresis (SCGE) called comet assay, described in detail previously. Briefly, harvested cells suspended in low melting point agarose were put onto microscope slides pre-coated with normal melting point agarose and subjected sequentially to lysis, alkaline electrophoresis (pH > 13), and neutralization ([…]). The cells were stained with SYBRGold (Molecular Probes), viewed under a fluorescence microscope (Axiovert 200, Zeiss, Carl Zeiss, Gottingen, Germany), and analyzed using CometScore™ software (TriTek Corp., Sumerduck, VA, USA). At least 100 cells were analyzed on a microscope slide; 300 cells were considered for DNA damage detection in one sample. Data were expressed as the mean percentage of DNA content in the comet tail. […] Based on the comets' categorization, the total comet score (TCS) was calculated according to the formula: TCS = 0(n) + 1(n) + 2(n) + 3(n) + 4(n), where “n” is the number of cells in each comet class (0–4)[45].

CCD 841 CoN cells [4] = test: Cell cycle analysis by flow cytometry (propidium iodide); format: cell-based, human; settings: 40 μg/mL, 24 h
Description: CCD 841 CoN cells were grown in 6-well plates at an initial cell density of 2 × 10^4 cells/cm^2 for 24 h under standard culture conditions. The cells were treated for 24 h with the analyzed compounds at a concentration of 40 μg/mL; the high dose was applied because of the relatively low cytotoxic potential of ST-OA and ST-LA as determined in cytotoxicity studies. In addition, the cells were exposed to 0.05 μM camptothecin (Sigma-Aldrich) as a positive reference compound known to modulate cell cycle progression.
After treatment, the cells were harvested by trypsinization, washed in PBS, and fixed in 70% ethanol. Then, the cells were stained with 50 μg/mL propidium iodide in the presence of 100 μg/mL RNase (Sigma-Aldrich). The sample preparation method and staining protocol were described previously. The cycle phase distribution was analyzed with an Amnis™ FlowSight™ flow cytometer (Luminex Corporation, TX, USA).

CC[C@H](/C=C/[C@@H](C)[C@H]1CC[C@H]2[C@@H]3CC=C4C[C@@H](O)CC[C@]4(C)[C@H]3CC[C@]12C)C(C)C [ST, Stigmasterol]
intracellular ROS production / oxidative reactivity [1]: did not induce enhanced intracellular ROS production | degradation of ST molecule due to the heating process [2]: approximately 80% | comets category 2 (medium DNA damage, 25 to 45% DNA in tail), share of cell population (CCD 841 CoN cells [3]): 3.5% | total comet score (TCS), comet class distribution vs control (CCD 841 CoN cells [3]): no significant differences | cell accumulation in G2/M phases (CCD 841 CoN cells [4]): significant cell accumulation in the G2/M phases
